In PubChem BioAssay (NCI):
Where “and” joins values, the source holds several entries; their conditions need not be identical. Equal entries are not always repeated.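 96-well plates; 48 h exposure; 5 concentrations. Endpoints by linear interpolation between flanking doses. Not reached: highest tested concentration assigned. Here, GI50 denotes the concentration required for 50% inhibition of growth. TGI is the concentration that stops growth completely.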

Key:
Assay in all cases: NCI-60 cell line screen, 48 h
[1] = tested on: NCI-H522 lung
[2] = tested on: OVCAR-8 ovarian
[3] = tested on: SK-MEL-2 melanoma
[4] = tested on: SK-OV-3 ovarian
[5] = tested on: SNB-19 CNS
[6] = tested on: A549 NSCLC
[7] = tested on: EKVX NSCLC
[8] = tested on: DU-145 prostate
[9] = tested on: HOP-62 NSCLC
[10] = tested on: HT29 colon

SMILES: CNCCNc1c2c(c(NCCNC)c3c(CN(C)C)c[nH]c13)C(=O)c1ccccc1C2=O
- GI50 [1]: 0.514 µM
- TGI [1]: 3.59 µM
- GI50 [2]: 3.28 µM
- TGI [2]: 13.6 µM
- GI50 [3]: 2.94 µM
- TGI [3]: 16.4 µM
- GI50 [4]: 17.1 µM
- TGI [4]: 50.8 µM
- GI50 [5]: 12.2 µM
- TGI [5]: > 41.7 µM
- GI50 [6]: 3.42 µM
- TGI [6]: 11.2 µM
- GI50 [7]: 2.13 µM
- TGI [7]: 5 µM
- GI50 [8]: 1.53 µM
- TGI [8]: 5.93 µM
- GI50 [9]: 2.9 µM
- TGI [9]: 10.1 µM
- GI50 [10]: 3.41 µM
- TGI [10]: 31.6 µM

SMILES: COc1ncnc(C2CC2)c1-c1ncc2cnn(Cc3ccc(-c4nc(C(F)(F)F)cn4C(C)C)cc3)c2n1
- GI50 [1]: 8.52 µM
- TGI [1]: 48.3 µM
- GI50 [2]: 21 µM
- TGI [2]: > 100 µM
- GI50 [3]: 14.5 µM
- TGI [3]: 30.4 µM
- GI50 [4]: 36.8 µM
- TGI [4]: > 100 µM
- GI50 [5]: 22 µM
- TGI [5]: 69.5 µM
- GI50 [6]: 19.3 µM
- TGI [6]: > 100 µM
- GI50 [7]: 19 µM
- TGI [7]: 95.3 µM
- GI50 [8]: 22.1 µM
- TGI [8]: > 100 µM
- GI50 [9]: 25.6 µM
- TGI [9]: > 100 µM
- GI50 [10]: 17.9 µM
- TGI [10]: > 100 µM

SMILES: CC(=O)OC1Oc2ccccc2-c2oc(=O)c(-c3cc(=O)oc4cc(O)ccc34)cc21 (stereo not given)
- GI50 [1]: 16.9 µM
- TGI [1]: 43 µM
- GI50 [2]: 19.8 µM
- TGI [2]: > 100 µM
- GI50 [3]: 19.2 µM
- TGI [3]: 89 µM
- GI50 [4]: 26.7 µM
- TGI [4]: 87.6 µM
- GI50 [5]: 26.6 µM
- TGI [5]: > 100 µM
- GI50 [6]: 24 µM
- TGI [6]: > 100 µM
- GI50 [7]: 17.5 µM
- TGI [7]: 49.3 µM
- GI50 [8]: 19.4 µM
- TGI [8]: 50.5 µM
- GI50 [9]: 20.8 µM
- TGI [9]: 55.2 µM
- GI50 [10]: 26.4 µM
- TGI [10]: > 100 µM

SMILES: CC[C@]12C=CCN3CC[C@@]4(c5ccc(OC)cc5N(C)[C@H]4[C@@](O)(C(=O)OC)[C@@H]1OC(=O)CCC[P+](c1ccccc1)(c1ccccc1)c1ccccc1)[C@@H]32
- GI50 [1]: 0.247 µM and 0.342 µM
- TGI [1]: 5.37 µM and 1.41 µM
- GI50 [2]: 1.45 µM and 1.59 µM
- TGI [2]: 6.77 µM and 9.71 µM
- GI50 [3]: 0.441 µM and 0.356 µM
- TGI [3]: 1.52 µM and 1.27 µM
- GI50 [4]: 0.894 µM and 0.439 µM
- TGI [4]: 3.8 µM and 2.46 µM
- GI50 [5]: 0.296 µM and 0.382 µM
- TGI [5]: 6.04 µM and 1.66 µM
- GI50 [6]: 1.5 µM and 1.11 µM
- TGI [6]: 36.2 µM and 11.4 µM
- GI50 [7]: 1.17 µM and 2.73 µM
- TGI [7]: 10 µM and 18.2 µM
- GI50 [8]: 1.09 µM and 0.768 µM
- TGI [8]: 6.47 µM and 11.8 µM
- GI50 [9]: 1.84 µM and 2.18 µM
- TGI [9]: 7.71 µM and 7.08 µM
- GI50 [10]: 0.334 µM and 0.403 µM
- TGI [10]: 4.91 µM and 2.78 µM

SMILES: Oc1[nH]c2ccccc2c1N=Nc1ccccc1Cl
- TGI [1]: > 100 µM
- TGI [2]: > 64.7 µM
- TGI [3]: > 100 µM
- TGI [4]: 64.5 µM
- TGI [5]: > 83.6 µM
- TGI [6]: > 100 µM
- TGI [7]: > 100 µM
- TGI [8]: > 100 µM
- TGI [9]: 40.6 µM
- TGI [10]: > 100 µM

SMILES: COC(=O)/C=C/c1cc(O)c2oc(-c3ccc(O)c(O)c3)c(C(=O)OC)c2c1
- GI50 [1]: 0.0472 µM
- TGI [1]: 4.72 µM
- GI50 [2]: 0.521 µM
- TGI [2]: 13 µM
- GI50 [3]: 0.74 µM
- TGI [3]: 13.2 µM
- GI50 [4]: 1.13 µM
- TGI [4]: 15.6 µM
- GI50 [5]: 0.356 µM
- TGI [5]: 14.2 µM
- GI50 [6]: 1.27 µM
- TGI [6]: 14.1 µM
- GI50 [7]: 3.3 µM
- TGI [7]: 16.6 µM
- GI50 [8]: 0.369 µM
- TGI [8]: 12 µM
- GI50 [9]: 0.442 µM
- TGI [9]: 12.7 µM
- GI50 [10]: 3.24 µM
- TGI [10]: 11.5 µM

SMILES: Oc1ccc(Cl)cc1Cc1cc(Cl)cc(Cl)c1O
- GI50 [1]: 3.43 µM
- TGI [1]: 13.2 µM
- GI50 [2]: 12.8 µM
- TGI [2]: 76.4 µM
- GI50 [3]: 5.53 µM
- TGI [3]: 29 µM
- GI50 [4]: 2.93 µM
- TGI [4]: 13.1 µM
- GI50 [5]: 3.83 µM
- TGI [5]: 28.9 µM
- GI50 [6]: 5.48 µM
- TGI [6]: 47.6 µM
- GI50 [7]: 3.75 µM
- TGI [7]: 62.5 µM
- GI50 [8]: 4.94 µM
- TGI [8]: 53.7 µM
- GI50 [9]: 3.68 µM
- TGI [9]: 21 µM
- GI50 [10]: 19.8 µM
- TGI [10]: 43.9 µM

SMILES: CC(C)(C)C(=O)OCOP(=O)(OCOC(=O)C(C)(C)C)C1CCCN(O)C1=O (stereo not given)
- GI50 [1]: 0.308 µM
- TGI [1]: 1.83 µM
- GI50 [2]: 0.305 µM
- TGI [2]: 8.91 µM
- GI50 [3]: 1.55 µM
- TGI [3]: 8.76 µM
- GI50 [4]: 0.508 µM
- TGI [4]: 8.81 µM
- GI50 [5]: 0.551 µM
- TGI [5]: 28.7 µM
- GI50 [6]: 0.637 µM
- TGI [6]: > 100 µM
- GI50 [7]: 0.657 µM
- TGI [7]: 12.5 µM
- GI50 [8]: 0.831 µM
- TGI [8]: > 100 µM
- GI50 [9]: 0.487 µM
- TGI [9]: 6.63 µM
- GI50 [10]: 0.335 µM
- TGI [10]: 8.53 µM

SMILES: NC(=NCCCOc1ccc(Cl)cc1)Nc1ccc(C(F)(F)F)cc1
- GI50 [1]: 1.75 µM
- TGI [1]: 4.41 µM
- GI50 [2]: 2.18 µM
- TGI [2]: 6.05 µM
- GI50 [3]: 1.87 µM
- TGI [3]: 3.88 µM
- GI50 [4]: 4.68 µM
- TGI [4]: 18.1 µM
- GI50 [5]: 2.79 µM
- TGI [5]: 19.5 µM
- GI50 [6]: 2.78 µM
- TGI [6]: 12.6 µM
- GI50 [7]: 2.51 µM
- TGI [7]: 8.65 µM
- GI50 [8]: 2.62 µM
- TGI [8]: 7.26 µM
- GI50 [9]: 2.28 µM
- TGI [9]: 6.43 µM
- GI50 [10]: 1.88 µM
- TGI [10]: 5.55 µM

SMILES: CC(C)c1ccc(Nc2ccc3c(OCCCN4CCN(C)CC4)cccc3n2)cc1
- GI50 [1]: 19.9 µM
- TGI [1]: 39.7 µM
- GI50 [2]: 17.8 µM
- TGI [2]: 33.3 µM
- GI50 [3]: 19.6 µM
- TGI [3]: 36.5 µM
- GI50 [4]: 15.7 µM
- TGI [4]: 31.2 µM
- GI50 [5]: 12.5 µM
- TGI [5]: 30 µM
- GI50 [6]: 15.6 µM
- TGI [6]: 29.8 µM
- GI50 [7]: 14 µM
- TGI [7]: 28.3 µM
- GI50 [8]: 13.9 µM
- TGI [8]: 26.9 µM
- GI50 [9]: 12 µM
- TGI [9]: 26.4 µM
- GI50 [10]: 2.16 µM
- TGI [10]: 4.92 µM

SMILES: Clc1coc2nc3ccccc3c(Nc3ccc4c(c3)OCO4)c12
- GI50 [1]: 2.17 µM
- TGI [1]: > 23.3 µM
- GI50 [2]: 2.33 µM
- TGI [2]: 21.2 µM
- GI50 [3]: 5.99 µM
- TGI [3]: > 100 µM
- GI50 [4]: 2.24 µM
- TGI [4]: > 100 µM
- GI50 [5]: 1.8 µM
- TGI [5]: > 100 µM
- GI50 [6]: 0.995 µM
- TGI [6]: 22.3 µM
- GI50 [7]: 5.35 µM
- TGI [7]: 30.4 µM
- GI50 [8]: 2.58 µM
- TGI [8]: 17.2 µM
- GI50 [9]: 0.781 µM
- TGI [9]: 21.9 µM
- GI50 [10]: 0.601 µM
- TGI [10]: > 100 µM

SMILES: C=C(C=O)C1CCC2(C(=O)O)CCC3(C)C(CCC4C5(C)CCC(O)C(C)(C)C5CCC43C)C12 (stereo not given)
- GI50 [1]: 1.96 µM
- TGI [1]: 5 µM
- GI50 [2]: 4.09 µM
- TGI [2]: 32.2 µM
- GI50 [3]: 3.82 µM
- TGI [3]: 12 µM
- GI50 [4]: 7.37 µM
- TGI [4]: 19.6 µM
- GI50 [5]: 8.18 µM
- TGI [5]: 20.8 µM
- GI50 [6]: 4.58 µM
- TGI [6]: 28.7 µM
- GI50 [7]: 6.23 µM
- TGI [7]: > 61.7 µM
- GI50 [8]: 1.6 µM
- TGI [8]: 3.55 µM
- GI50 [9]: 4.93 µM
- TGI [9]: 19.7 µM
- GI50 [10]: 2.65 µM
- TGI [10]: 7.39 µM
